Test results from US10701931B2, “Mosquito activating formulations” (Commonwealth Scientific and Industrial Research Organisation, priority 2015, dated 2020).
Where “and” joins values, the source holds several entries; their conditions need not be identical. Identical values can stand only once.

Experiments:
Anopheles stephensi [1] = assay: Y-tube olfactometer, measurement of activation against clean air; assay type: in vivo; conditions: for Activation (against clean air): An. stephensi females; for Concentration of greatest activation response: tested 10^-2 to 10^-5%
Experimental: A y-tube olfactometer was used to establish whether the volatile components of human breath elicited behavioural responses in the malaria vector Anopheles stephensi. The MR4 strain of An. stephensi (New Delhi, India) was maintained at 27° C., 70% RH, 12:12 L:D and 30 min dawn/dusk periods). 4 to 7 day old female mosquitoes, that had never received a blood meal, were used in experiments. Mosquitoes were maintained on 10% sugar solution ad libitum but starved for 12 hr prior to testing. The Y tube olfactometer is made entirely of glass and consists of a release chamber, the Y tube itself, and a trap chamber attached to each arm (FIG. 1). Each trap chamber is divided in two by a fine glass filter. On the far side of those filters, the trap chambers can connect to charcoal filters or to gas bags or gas cylinders. Air is pulled through the olfactometer by connecting the release chamber to a vacuum tap which vents the contents of the tube. Standard air flow (0.4 L/minute) is maintained using a 0.1-1.2 LPM flow meter (John Morris Pty, LTD). The air volume of the Y-tube is approximately 1 litre and is therefore replaced every 2.5 minutes. One arm is attached to a gas bag of clean air (from a compressed air cylinder) […]. The other arm remains connected to a carbon filter and the air inlet to give a plume of compressed air plus test stimuli (i.e. standard air concentration of CO2 only). 1 μl 10^−2 to 10^−5% test stimuli in mineral oil (Sigma Aldrich) was spotted on 1 cm^2 Whatman filter paper. Test stimuli was delivered by placing treated filter paper between the air inlet and the trap chamber to give a plume of compressed air plus test stimuli (i.e. standard air concentration of CO2 only). All experiments were run under PC2 quarantine conditions, at 27° C., 70% RH, under infrared light. Observers were always in the same position during the tests, at the trap chamber end of the olfactometer, between the 2 arms of the Y tube. Using an aspirator, 25-30 starved female An. stephensi were introduced into the release chamber (FIG. 1). […] After each test, mosquitoes were carefully aspirated from the apparatus by disconnecting constituent parts. The apparatus was flushed with clean air (charcoal filters only) for 5 minutes before the next batch of stimuli was introduced. A total of 10 replicates (different batches of mosquitoes) were run for each stimuli assessment. Treatment and control arms were alternated between replicates. After completion of 10 replicates, the apparatus was rinsed in acetone and allowed to dry overnight. Initial experiments were therefore less concerned with directional responses and more with establishing the range of doses that appeared to cause some form of excitation. Those initial experiments were conducted in comparison to a neutral control (a negative would be repellent) of clean air drawn through a charcoal filter. The test stimuli were tested against mosquitoes at serial dilutions in the range 10^−2 to 10^−5%. Once mosquitoes had stopped responding, the numbers in the olfactometer arms, base leg and release chamber were counted. Mosquitoes were assumed to have been “activated” if they moved into the Y tube arms.

Anopheles stephensi [2] = assay: Y-tube olfactometer, measurement of attraction against CO2/1-octen-3-ol positive control; assay type: in vivo; conditions: for Attraction (against CO2 + 1-octen-3-ol): An. stephensi females
Experimental: Attraction to these components was compared to a standard “positive control” known to elicit a directional response in An. stephensi mosquitoes placed in an olfactometer. The standard used as a positive control is a mix of compressed air, 5% CO2 and an octenol source. Unpaired t-test was used to test for the differences in means for all data sets presented.
The MR4 strain of An. stephensi (New Delhi, India) was maintained at 27° C., 70% RH, 12:12 L:D and 30 min dawn/dusk periods). 4 to 7 day old female mosquitoes, that had never received a blood meal, were used in experiments. Mosquitoes were maintained on 10% sugar solution ad libitum but starved for 12 hr prior to testing.
The Y tube olfactometer is made entirely of glass and consists of a release chamber, the Y tube itself, and a trap chamber attached to each arm (FIG. 1). Each trap chamber is divided in two by a fine glass filter. On the far side of those filters, the trap chambers can connect to charcoal filters or to gas bags or gas cylinders. Air is pulled through the olfactometer by connecting the release chamber to a vacuum tap which vents the contents of the tube. Standard air flow (0.4 L/minute) is maintained using a 0.1-1.2 LPM flow meter (John Morris Pty, LTD). The air volume of the Y-tube is approximately 1 litre and is therefore replaced every 2.5 minutes.
1 μl 10^−4% 1-octen-3-ol in mineral oil (Sigma Aldrich) was spotted on 1 cm^2 Whatman filter paper.
5% CO2 by volume was added to a 10 L FlexFilm gasbag (SKC Inc.) of compressed air.
When a CO2/1-octen-3-ol mix was required, 5% CO2 was delivered by connecting the gas bag to the requisite Y tube arm and placing the 1-octen-3-ol treated filter paper between the gasbag inlet and the glass filter of the trap chamber.
All experiments were run under PC2 quarantine conditions, at 27° C., 70% RH, under infrared light. Observers were always in the same position during the tests, at the trap chamber end of the olfactometer, between the 2 arms of the Y tube.
Using an aspirator, 25-30 starved female An. stephensi were introduced into the release chamber (FIG. 1).
After each test, mosquitoes were carefully aspirated from the apparatus by disconnecting constituent parts. The apparatus was flushed with clean air (charcoal filters only) for 5 minutes before the next batch of stimuli was introduced.
A total of 10 replicates (different batches of mosquitoes) were run for each stimuli assessment. Treatment and control arms were alternated between replicates. After completion of 10 replicates, the apparatus was rinsed in acetone and allowed to dry overnight.
Once the range of doses that “activated” mosquitoes had been established, the capacity of those concentrations to initiate a directional response was tested. In this instance, experiments were conducted in comparison to a positive control of CO2/1-octen-3-ol [[…]]. […] A positive control was used to assess whether test stimuli were at least as attractive as a standard directional stimulus.

[3] = test system: Anopheles stephensi maxillary palps; assay: Electropalpogram (EPG), non bloodfed females; conditions: for EPG response compared to mineral oil control: n=7
Experimental: (§1) In order to assess Y-tube olfactometry experiments and field trials using an independent technique and to investigate the physiological basis of the observed activation and attraction behaviour, electroanntennogram (EAG) and electropalpogram (EPG) studies were performed on A. stephensi female mosquitoes. EAG studies were also performed on Anopheles farauti, Culex annulirostris and Aedes aegypti female mosquitoes.
(§2) Five to eight days Anopheles stephensi, two to fourteen days old Culex annulirostris and Aedes aegypti as well as four days old Anopheles faraulti non-blooded females, fed on 10% sucrose ad-libitum and then starved for >12 hours, were used. Mosquito head was excised and placed on the reference electrode coated with electrode gel (Parker Laboratories, Orange, N.J.). The distal end of the antennae or palp (<0.5 mm), cut to ensure a good electrical contact, were carefully placed on the recording electrode (Syntech, Germany). Signals were fed to a 10× amplifier and processed with IDAC 4 and PC-based interface and EAG software package (Syntech, Germany).
(§3) Thus 1-octen-3-ol was used in the EAG analysis as a positive control with thio compounds, (E and Z)-1-methylthio-1-propene, 3-methyl-thio-1-propanol, ally methyl sulphide, and carbon dioxide (5%) and mineral oil (negative control). Pure chemicals were diluted in mineral oil to a 10 times v/v stock solution, from which decadal dilutions were made. A 10 μl aliquot of each solution was applied to a filter paper strip (1×3.5 cm; Whatman No. 4, Fisher Scientific) and the solvent was evaporated under a fume hood before inserting the paper strip into 5 ml disposable plastic syringe (Terumo syringes). A 500 ms pulse (5 ml/s) was delivered by stimulus controller CS-55 (Syntech, Germany) to deliver chemical stimulants to a humidified continuous air flow (10 ml/s) over the electrophysiolgical preparation. The chemicals were tested randomly and applied with 0.5-1 min intervals between stimulations.
(§4) Initial screening was performed using a 10 times dilution (1/10, v/v) source dose solution. Then 1-methylthio-1-propene and 1-octen-3-ol were selected for further dose-response study. A minimum of five mosquitoes were tested for each compound to calculate the average EAG amplitude±standard error (SE).

C. annulirostis antennae = assay: Electroantennogram (EAG), non bloodfed females; set-up: species or system Culex annulirostris; conditions: n=5
Experimental: as §1, §2
(§5) Thus 1-octen-3-ol was used in the EAG analysis as a positive control with thio compounds, (E and Z)-1-methylthio-1-propene, 3-methyl-thio-1-propanol, ally methyl sulphide, and carbon dioxide (5%) and mineral oil (negative control). […]

A. aegypti antennae = assay: Electroantennogram (EAG), non bloodfed females; set-up: species or system Aedes aegypti; conditions: n=5
Experimental: as §1, §2, §5

[4] = test system: Anopheles farauti antennae; assay: Electroantennogram (EAG), non bloodfed females; conditions: chemicals at 1/10 concentrations
Experimental: as §1, §2, §3, §4

[5] = test system: Anopheles stephensi antennae; assay: Electroantennogram (EAG), non bloodfed females
Experimental: as §1, §2, §3, §4

[6] = test system: Anopheles farauti maxillary palps; assay: Electropalpogram (EPG), non bloodfed females; conditions: chemicals at 1/10 concentrations, CO2 5%; for EPG response compared to mineral oil control: n=6
[7] = test system: female Anopheles funestus antennae; conditions: cited from earlier work
[8] = test system: female An. gambiae antennae; conditions: cited from earlier work
Anopheles farauti s.l = assay: Field trial with CDC light traps, Anopheles farauti s.l catch; assay type: in vivo; conditions: for Anopheles farauti s.l catch numbers: CDC light trap, one night, treatment per Table 3
Experimental: (§6) Field trials based on an imperfect Latin square design compared the attraction of An. farauti to MTPE with and without CO2. Treatments included CO2 alone, CO2 in combination with MTPE lure, or MTPE lure alone. Centres for Disease Control and Prevention (CDC) light traps were used to deliver MTPE lures and/or CO2. MTPE lures consisted of 500 μl of MTPE in mineral oil, 10-100,000 ppm spread on filter paper. MTPE/mineral oil mixtures were spread on filter paper, rolled into a tight wick, and inserted into a specimen tube. Specimen tubes where then wired to a CDC trap. CO2 was delivered using 1 kg dry ice, hung above a CDC light trap, as per standard sampling protocols. MTPE+/−CO2 combinations were randomised between 4 trap positions over three nights. Traps were placed at least 50 m apart to manage interference and were set between 5 pm and 7 am each night. Trap catches were subsequently returned to the laboratory, counted and identified as “Anopheles farauti s.l” or “other”.
(§7) As CO2 is a known mosquito attractant, all catches were compared to CO2 alone.

Total mosquito = assay: Field trial with CDC light traps, total mosquito catch; assay type: in vivo; conditions: CDC light trap, one night, treatment per Table 3
Experimental: as §6, §7

[9] = dilution 0.0001 (10^-4)% in mineral oil
[10] = dilution 0.001 (10^-3)% in mineral oil
[11] = dilution 0.01 (10^-2)% in mineral oil
[12] = chemicals at 1/10 concentrations, CO2 5%
[13] = dilution 0.00001 (10^-5)% in mineral oil

CSCCCO [MTPL, 3-methylthio-1-propanol]
Concentration range over which an activation response was initiated (Anopheles stephensi [1]; against clean air): 0.00001-0.01%
Activation (against clean air) (Anopheles stephensi [1]; [9]): Yes
Activation (against clean air) (Anopheles stephensi [1]; [10]): Yes
Activation (against clean air) (Anopheles stephensi [1]; [11]): Yes
Attractiveness relative to 1-octen-3-ol/CO2 (Anopheles stephensi [2]; at 0.01%): 1.5
EPG response compared to mineral oil control [3, 12]: did not
EAG response, comparison among tested chemicals (C. annulirostis antennae): strongest response
EAG response, comparison among tested chemicals (A. aegypti antennae): strongest response

C=CC(O)CCCCC (stereo not shown) [1-octen-3-ol, reference compound]
EAG response compared to mineral oil control ([4]; CO2 5%, n=5): significantly responding
EAG response compared to mineral oil control ([5]; chemicals at 1/10 concentrations, CO2 5%, n=6): significantly responded
EPG response compared to mineral oil control [3, 12]: did not
EPG response compared to mineral oil control [6]: did not
EAG response, comparison among tested chemicals (C. annulirostis antennae): strongest response
EAG response [7]: significant EAG response
EAG response [8]: significant EAG response

C=CCSC [AMS, Allyl methyl sulphide]
Concentration of greatest activation response (Anopheles stephensi [1]; against clean air): 0.00001 % v/v
Activation (against clean air) (Anopheles stephensi [1]; [13]): caused activation and Yes
Activation (against clean air) (Anopheles stephensi [1]; [9]): Yes
Activation (against clean air) (Anopheles stephensi [1]; [11]): Yes
Attractiveness relative to 1-octen-3-ol/CO2 (Anopheles stephensi [2]; at 0.00001%): twice
Attraction (against CO2 + 1-octen-3-ol) (Anopheles stephensi [2]; dilution 0.00001 (10^-5)%): Yes
EPG response compared to mineral oil control [3, 12]: significant responses

CC=CSC [MTPE, 1-methylthio-1-propene]
Concentration of greatest activation response (Anopheles stephensi [1]; against clean air): 0.0001 % v/v
Activation compared with that at 0.0001% v/v (Anopheles stephensi [1]; at lower (0.00001%) and higher (0.001-0.01%) concentrations (v/v)): reduced
Activation (against clean air) (Anopheles stephensi [1]; [13]): Yes
Activation (against clean air) (Anopheles stephensi [1]; [9]): Yes
Activation (against clean air) (Anopheles stephensi [1]; [10]): Yes
Activation (against clean air) (Anopheles stephensi [1]; [11]): Yes
Attractiveness relative to 1-octen-3-ol/CO2 (Anopheles stephensi [2]; at 0.0001%): more attractive
Attraction (against CO2 + 1-octen-3-ol) (Anopheles stephensi [2]; dilution 0.0001 (10^-4)%): Yes
Attractancy in field trial, compared to CO2 alone (Anopheles farauti s.l; 100 ppm): attractive
Anopheles farauti s.l catch numbers (Anopheles farauti s.l; 100 ppm MTPE lure alone): 28
Attractancy in field trial, effect of CO2 (Anopheles farauti s.l; 1,000 ppm MTPE with CO2): CO2 synergises attractancy
Attractancy in field trial, compared to CO2 alone (Anopheles farauti s.l; 10,000 ppm): not attractive, possibly repellent
Attractancy in field trial, compared to CO2 alone (Anopheles farauti s.l; 100,000 ppm): not attractive, possibly repellent
Anopheles farauti s.l catch numbers (Anopheles farauti s.l; CO2 + 1000 ppm MTPE lure): 89 and 78 and 63
Dose dependence of attractancy in field trial (Anopheles farauti s.l; MTPE lures 100-100,000 ppm): Dose dependent attractancy
Total mosquito catch numbers (Total mosquito; 100 ppm MTPE lure alone): 189
Total mosquito catch numbers (Total mosquito; CO2 + 1000 ppm MTPE lure): 203 and 264 and 358
EAG response, comparison among tested chemicals [4]: strongest response
EAG response, comparison among tested chemicals ([5]; chemicals at 1/10 concentrations): strongest response
EAG response, dose dependence ([5]; decadal dilutions, n=7): dose dependant
EPG response, comparison among tested chemicals [3, 12]: strongest response
EPG response compared to mineral oil control [3, 12]: significant responses
EPG response, dose dependence ([3]; decadal dilutions, n=6): dose dependant
EPG response, comparison among tested chemicals [6]: strongest response

O=C=O [CO2, carbon dioxide, reference compound]
Total mosquito catch numbers (Total mosquito; CO2 alone (1 kg dry ice)): 206 and 233 and 298
EPG response compared to mineral oil control [3, 12]: significant responses
EPG response compared to mineral oil control [6]: significant responses
